Laboratory results: paper PMC8369186, “Ligand-Based and Docking-Based Virtual Screening of MDM2 Inhibitors as Potent Anticancer Agents” (Computational and Mathematical Methods in Medicine, 2021)
Like-named read-outs stand apart in the source and are kept apart here.

Tests used:
[1] = target: MDM2 (Homo sapiens, UniProt Q00987); assay: MDM2 binding assay (fluorescence polarization); settings: for Inhibition (200 μM, %): 200 μM compound; for inhibition at 200 µM: read-out: Inhibition (200 μM, %), 200 μM compound
Sequence of MDM2 (Q00987 whole entry): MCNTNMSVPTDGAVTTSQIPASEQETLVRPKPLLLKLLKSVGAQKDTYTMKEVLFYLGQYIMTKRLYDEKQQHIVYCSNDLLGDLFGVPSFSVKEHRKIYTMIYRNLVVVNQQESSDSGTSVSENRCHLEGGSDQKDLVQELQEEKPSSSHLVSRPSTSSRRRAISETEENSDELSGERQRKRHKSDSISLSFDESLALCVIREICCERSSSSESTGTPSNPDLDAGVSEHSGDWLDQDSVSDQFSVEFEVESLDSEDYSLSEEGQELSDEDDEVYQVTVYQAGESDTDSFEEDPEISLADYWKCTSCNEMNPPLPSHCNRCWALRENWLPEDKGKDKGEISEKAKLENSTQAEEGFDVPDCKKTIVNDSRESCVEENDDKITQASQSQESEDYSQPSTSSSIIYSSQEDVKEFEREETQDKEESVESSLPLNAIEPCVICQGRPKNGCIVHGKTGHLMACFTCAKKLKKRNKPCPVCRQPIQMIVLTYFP
Procedure: The MDM2 binding tests of all 17 compounds were carried out by a fluorescence polarization assay.
30 nM preincubated (30 min) MDM2 and 10 nM PMDM-F peptide in reaction buffer (100 μL, potassium phosphate, 100 mM; bovine gamma globulin, […]; sodium azide, 0.02%) were added into a 96-well plate containing tested compounds at pH 7.5. […] The Ki values were calculated according to a reported method.

[2] = target: T1, Cathepsin K (Homo sapiens, UniProt P43235); assay: Cathepsin K inhibitory activity; type: biochemical
T1 sequence (P43235 115-329): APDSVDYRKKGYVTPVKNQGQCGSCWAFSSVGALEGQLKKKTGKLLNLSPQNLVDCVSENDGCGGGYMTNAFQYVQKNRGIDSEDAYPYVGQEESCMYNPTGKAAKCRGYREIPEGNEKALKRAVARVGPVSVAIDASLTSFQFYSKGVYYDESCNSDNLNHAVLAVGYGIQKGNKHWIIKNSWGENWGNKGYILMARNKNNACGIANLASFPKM

[3] = test system: human MDM2; settings: training set, cited from earlier work; for IC50: ref 24 (TS-1), 25 (TS-2), 12 (TS-3), 26 (TS-4), 8 (TS-6), 28 (TS-7), read-out: Potency human MDM2 (nM), IC50
[4] = test system: HCT116 (p53 +/+) cells; assay: cells; type: cell-based, human; settings: read-out: IC50 (μM) ± SD HCT116 (p53 +/+)
Procedure: (§1) Compounds were tested at six concentrations (0.001–100 μM).
(§2) The cells were seeded into a 96-well plate and incubated at 37°C in 5% CO2 for 24 h, after which the test compounds were added to the culture medium and the cells were incubated for 48 h. 20 μL fresh MTT was added to each well, and the cells were incubated at 37°C in 5% CO2 for 4 h. After removing the culture medium, 150 μL DMSO was added to dissolve the formazan crystals. The absorbance at 540 nm was measured using a microplate reader. The results, expressed as IC50 values, were the average of three determinations and were calculated using nonlinear regression analysis.

[5] = test system: HCT116 (p53 -/-) cells; assay: cells; type: cell-based, human; settings: read-out: IC50 (μM) ± SD HCT116 (p53 -/-)
Procedure: as §1, §2

[6] = test system: MCF7 (p53 +/+) cells; assay: cells; type: cell-based, human; settings: read-out: IC50 (μM) ± SD MCF7 (p53 +/+)
Procedure: as §1, §2

[7] = test system: MCF7 (p53 -/-) cells; assay: cells; type: cell-based; settings: Homo sapiens, read-out: IC50 (μM) ± SD MCF7 (p53 -/-)
Procedure: as §1, §2

[8] = Homo sapiens, HCT-116, MTT, 48 h

With O=C(c1cc2n(n1)C(C(F)(F)F)CC(c1ccc(Br)cc1)N2)N(Cc1ccccc1)c1ccccc1 (stereo not shown) [Compound 9, N-benzyl-5-(4-bromophenyl)-N-phenyl-7-(trifluoromethyl)-4,5,6,7-tetrahydropyrazolo[1,5-a]pyrimidine-2-carboxamide] the Ki [1] was over 200 µM, the “Inhibition (200 μM, %)” value ([1]; 200 µM) was 37.6% and the inhibition at 200 µM [1] was under 50%. The IC50 ([2]; read-out: Cathepsin K IC50) was over 200 µM.

In the case of CCOc1cc(C(C)(C)C)ccc1C1=NC(C)(c2ccc(Cl)cc2)C(C)(c2ccc(Cl)cc2)N1C(=O)N1CCN(CCCS(C)(=O)=O)CC1 (stereo not shown) [TS-2], the IC50 [3] is listed as 18 nM.

In the case of CCOC(=O)c1cc(C(C)c2ccccc2)sc1NC(=O)c1cccc(COc2ccccc2Cl)c1 (stereo not shown) [Compound 1, Ethyl 2-({3-[(2-chlorophenoxy)methyl]benzoyl}amino)-5-(1-phenylethyl)-3-thiophenecarboxylate], the Ki [1] is reported as 43.5 µM, the “Inhibition (200 μM, %)” value ([1]; 200 µM) is reported as 80.2% and the inhibition at 200 µM [1] is reported as over 80%. The IC50 ([2]; read-out: Cathepsin K IC50) was over 200 µM.

With CC(C)N(C(=O)Cn1c(COc2ccc3ccccc3c2)nc2ccccc21)c1ccccc1 [Compound 4, N-isopropyl-2-{2-[(2-naphthyloxy)methyl]-1H-benzimidazol-1-yl}-N-phenylacetamide] the Ki [1] was 99.5 µM, the inhibition at 200 µM [1] was 76.3% and the IC50 ([2]; read-out: Cathepsin K IC50) was over 200 µM.

For CC(C)(C)C[C@H]1N[C@@H](C(N)=O)[C@H](c2cccc(Cl)c2F)C12C(=O)Nc1cc(Cl)ccc12 (stereo partly shown) [TS-5], the Ki ([3]; read-out: Potency human MDM2 (nM), Ki) is given as 3 nM.

For CCOC(=O)c1nnn(-c2nonc2N)c1CNc1ccccc1 [Compound 14, Ethyl 1-(4-amino-1,2,5-oxadiazol-3-yl)-5-(anilinomethyl)-1H-1,2,3-triazole-4-carboxylate], the Ki [1] was 127 µM, the inhibition at 200 µM [1] was 68.6% and the IC50 ([2]; read-out: Cathepsin K IC50) was over 200 µM.

With COc1cccc(OCC(=O)N(Cc2nc(-c3ccccc3)no2)C2CCCCC2)c1 [Compound 10, N-cyclohexyl-2-(3-methoxyphenoxy)-N-[(3-phenyl-1,2,4-oxadiazol-5-yl)methyl]acetamide] the Ki [1] was 3.2 µM, the “Inhibition (200 μM, %)” value ([1]; 200 µM) was 96.5% and the inhibition at 200 µM [1] was over 80%. For the same compound, the “fold less potent in MDM2 binding affinity than nutlin-3a” value ([1]; versus nutlin-3a) was “approximately 20 fold”, the IC50 ([4]; Homo sapiens, HCT-116, 48 h) was 12.6 ± 2.32 µM and the IC50 ([5]; Homo sapiens, HCT-116, 48 h) was 24.1 ± 2.31 µM. The IC50 ([6]; Homo sapiens, MCF7, 48 h) was 19.4 ± 2.26 µM, the IC50 ([7]; MCF7, MTT, 48 h) was 26.7 ± 1.65 µM and the IC50 ([2]; read-out: Cathepsin K IC50) was over 200 µM.

Compound COc1ccc(C2=N[C@@H](c3ccc(Cl)cc3)[C@@H](c3ccc(Cl)cc3)N2C(=O)N2CCNC(=O)C2)c(OC(C)C)c1 [Nutlin-3a, reference compound] has an IC50 ([4]; MTT, 48 h) of 18.1 ± 2.17 µM, an IC50 ([5]; MTT, 48 h) of 40.7 ± 1.47 µM and an IC50 ([6]; MTT, 48 h) of 32.2 ± 1.49 µM.

With CCOC(=O)/C=C1\NC(C)(C)Cc2cc(OC)c(OC)cc21 [Compound 6, Ethyl (6,7-dimethoxy-3,3-dimethyl-3,4-dihydro-1(2H)-isoquinolinylidene)acetate] the Ki [1] was over 200 µM, the “Inhibition (200 μM, %)” value ([1]; 200 µM) was 46.6% and the inhibition at 200 µM [1] was under 50%. The IC50 ([2]; read-out: Cathepsin K IC50) was over 200 µM.

Compound CC(C)(F)C[C@H](N[C@@H](c1ccc(-c2ccc(S(C)(=O)=O)cc2)cc1)C(F)(F)F)C(=O)NC1(C#N)CC1 [Odancatib, reference compound] has an IC50 ([2]; read-out: Cathepsin K IC50) of 0.001 µM.

In the case of CCOC(=O)c1c(-c2ccccc2)oc2ccc(O)c(CN(C)C)c12 [Compound 17, Ethyl 4-[(dimethylamino)methyl]-5-hydroxy-2-phenyl-1-benzofuran-3-carboxylate], the Ki [1] is reported as over 200 µM, the “Inhibition (200 μM, %)” value ([1]; 200 µM) is reported as 47.3% and the inhibition at 200 µM [1] is reported as under 50%. For the same compound, the IC50 ([2]; read-out: Cathepsin K IC50) was over 200 µM.

With [N-]=[N+]=CC(=O)C(O)(c1ccccc1)C(Cl)c1ccccc1 (stereo not shown) [Compound 12, 4-chloro-1-diazo-3-hydroxy-3,4-diphenyl-2-butanone] the Ki [1] was over 200 µM, the “Inhibition (200 μM, %)” value ([1]; 200 µM) was 18.8% and the “Inhibition (200 μM, %)” value ([1]; listed as AB-131/42300827, 200 µM) was under 50%. For the same compound, the IC50 ([2]; read-out: Cathepsin K IC50) was over 200 µM.

For Cc1nn(-c2ccccc2)c(O)c1/N=N/c1cccc2ncccc12 [Compound 16, 3-Methyl-1-phenyl-4-(quinolin-5-yldiazenyl)-1H-pyrazol-5-ol], the Ki ([1]; fluorescence polarization, eight concentrations 0.091–200 μM) was 64.6 µM, the inhibition at 200 µM [1] was 72.4% and the IC50 ([2]; read-out: Cathepsin K IC50) was over 200 µM.

O=c1nc(SCc2nc3ccccc3n2Cc2ccccc2)[nH]c2ccccc12 [Compound 3, 2-{[(1-benzyl-1H-benzimidazol-2-yl)methyl]sulfanyl}-4(1H)-quinazolinone] showed a Ki [1] of 104 µM, an inhibition at 200 µM [1] of 62.4% and an IC50 ([2]; read-out: Cathepsin K IC50) of over 200 µM.

In the case of CCc1nnc(NC(=O)CSc2nnc(COc3ccccc3)n2-c2ccc(C)cc2)s1 [Compound 7, N-(5-ethyl-1,3,4-thiadiazol-2-yl)-2-{[4-(4-methylphenyl)-5-(phenoxymethyl)-4H-1,2,4-triazol-3-yl]sulfanyl}acetamide], the Ki [1] is reported as 98.3 µM, the inhibition at 200 µM [1] is reported as 63.7% and the IC50 ([2]; read-out: Cathepsin K IC50) is reported as over 200 µM.

For O=C(O)CC1c2ccccc2CCN1S(=O)(=O)c1ccccc1 (stereo not shown) [Compound 15, [2-(phenylsulfonyl)-1,2,3,4-tetrahydroisoquinolin-1-yl]acetic acid], the Ki [1] was 23.1 µM, the “Inhibition (200 μM, %)” value ([1]; 200 µM) was 82.1% and the inhibition at 200 µM [1] was over 80%. It also gave an IC50 [4, 8] of 28.1 ± 2.53 µM, an IC50 [5, 8] of 51.7 ± 4.15 µM and an IC50 ([6]; Homo sapiens, MCF7, MTT, 48 h) of over 100 µM. The IC50 ([7]; MCF7, MTT, 48 h) was over 100 µM and the IC50 ([2]; read-out: Cathepsin K IC50) was over 200 µM.

With COC(=O)C1C(CBr)N1N1C(=O)c2ccccc2C1=O (stereo not shown) [Compound 13, Methyl 3-(bromomethyl)-1-(1,3-dioxo-1,3-dihydro-2H-isoindol-2-yl)-2-aziridinecarboxylate] the Ki [1] was over 200 µM, the “Inhibition (200 μM, %)” value ([1]; 200 µM) was 42.9% and the inhibition at 200 µM [1] was under 50%. The IC50 [2] was over 200 µM.

For C=CCn1c(COc2ccccc2)nnc1SC(C)C(=O)NN=Cc1ccccc1F (stereo not shown) [Compound 8, 2-{[4-allyl-5-(phenoxymethyl)-4H-1,2,4-triazol-3-yl]sulfanyl}-N'-(2-fluorobenzylidene)propanohydrazide], the Ki [1] was 23.4 µM, the “Inhibition (200 μM, %)” value ([1]; 200 µM) was 84.7% and the inhibition at 200 µM [1] was over 80%. The IC50 [4, 8] was over 100 µM, the IC50 [5, 8] was over 100 µM and the IC50 ([6]; Homo sapiens, MCF7, MTT, 48 h) was over 100 µM. It also gave an IC50 ([7]; MCF7, MTT, 48 h) of over 100 µM and an IC50 ([2]; read-out: Cathepsin K IC50) of over 200 µM.

In the case of C=CCn1c(SCC(=O)N2N=C(c3ccco3)CC2c2ccco2)nnc1-c1ccncc1 (stereo not shown) [Compound 2, 4-allyl-5-(4-pyridinyl)-4H-1,2,4-triazol-3-yl 2-[3,5-di(2-furyl)-4,5-dihydro-1H-pyrazol-1-yl]-2-oxoethyl sulfide], the Ki [1] is reported as 9.5 µM, the “Inhibition (200 μM, %)” value ([1]; 200 µM) is reported as 95.8% and the inhibition at 200 µM [1] is reported as over 80%. It also gave an IC50 [4, 8] of 35.5 ± 1.48 µM, an IC50 [5, 8] of 58.2 ± 4.57 µM and an IC50 ([6]; Homo sapiens, MCF7, MTT, 48 h) of over 100 µM. The IC50 ([7]; MCF7, MTT, 48 h) was over 100 µM and the IC50 ([2]; read-out: Cathepsin K IC50) was over 200 µM.

For O=C(NCCN1CCOCC1)c1[nH]c2cc(Cl)ccc2c1-c1c(-c2ccccc2)ncn1Cc1ccc(Cl)cc1 [TS-6], the IC50 [3] is given as 30 nM.

For COc1ccc(OCc2nnc3sc(COc4ccccc4Cl)nn23)cc1 [Compound 11, 6-[(2-chlorophenoxy)methyl]-3-[(4-methoxyphenoxy)methyl][1,2,4]triazolo[3,4-b][1,3,4]thiadiazole], the Ki [1] was over 200 µM, the “Inhibition (200 μM, %)” value ([1]; 200 µM) was 32.3% and the inhibition at 200 µM [1] was under 50%. It also gave an IC50 ([2]; read-out: Cathepsin K IC50) of over 200 µM.

In the case of O=S(=O)(Nc1nc2ccccc2nc1Nc1cccc(O)c1)c1ccc(Cl)cc1 [Compound 5, 4-chloro-N-[3-(3-hydroxyanilino)-2-quinoxalinyl]benzenesulfonamide], the Ki [1] is reported as 8.5 µM, the “Inhibition (200 μM, %)” value ([1]; 200 µM) is reported as 90.31% and the inhibition at 200 µM [1] is reported as over 80%. The IC50 ([4]; Homo sapiens, HCT-116, 48 h) was 17.4 ± 1.8 µM, the IC50 ([5]; Homo sapiens, HCT-116, 48 h) was 40.8 ± 3.54 µM and the IC50 ([6]; Homo sapiens, MCF7, 48 h) was 40.2 ± 1.77 µM. It also gave an IC50 ([7]; MCF7, 48 h) of 56.4 ± 4.12 µM and an IC50 ([2]; read-out: Cathepsin K IC50) of over 200 µM.
